Experimental data reported in patent US20180318379A1, “INHIBITION OF TRIGGERING RECEPTOR EXPRESSED ON MYELOID CELLS 1 (TREM1) TO TREAT CENTRAL NERVOUS SYSTEM DISORDERS” (The Board of Trustees of the Leland Stanford Junior …, priority 2017, published 2018).

Tests used:
TREM1 [1] = assay: FACS quantification of brain myeloid cells after MCAo-RP stroke; assay type: in vivo, mice
Protocol: FIG. 12. A representation of the dynamics of immune present at the indicated days after stroke (or the temporal dynamics of immune cell subsets). Stroke was modeled in […] 3 mo male mice using 45 minutes of middle cerebral artery occlusion (MCAo) followed by reperfusion (RP).
These plots show increased CD11b^+/CD45^lo microglia and reduced CD11b^+/CD45^hi macrophages with LP17 treatment.

TREM1 [2] = assay: Neuroscore after MCAo-RP stroke in mice; assay type: in vivo; settings: 2 days after MCAo-RP; LP17 vs scrambled peptide; n=15-18 per group; ANOVA effect of LP17 p=0.008
[3] = 2 days after MCAo-RP, LP17 vs scrambled peptide

For LQVTDSGLYRCVIYHPP [LP17], the “CD11b+/CD45hi macrophages in stroked hemisphere (FACS)” value (TREM1 [1]; [3]) was “reduced”, the “CD11b+/CD45lo microglia in stroked hemisphere (FACS)” value (TREM1 [1]; [3]) was “increased” and the “infiltration of macrophages after stroke” value (TREM1 [1]; after MCAo-RP stroke) was “reduces infiltration of macrophages”. The neuroscores (TREM1 [2]) was “improved”.
